Measured values taken from patent US8815590B2, “Composition and method for differentiation of human embryonic stem cells” (Stem Cells for Safer Medicines Limited, priority 2009, dated 2014).

Columns and labels:
[1] = system: definitive endoderm derived from human ESCs; assay: Differentiation of chemically induced DE to hepatocyte-like cells; type: cell-based; details: DE induction with compound, then HGF/FGF4, then HGF/FGF4/OSM/Dex
Description: (A) Schematic representation of the differentiation protocol. (B) Images of differentiated cells at stage II (d14) and stage III (d25). (C) RT-PCR expression analyses of RNA prepared from cells at the indicated stages of differentiation, using primers specific to the genes indicated. RNA extracted from human liver was used as a positive control. β-ACTIN was used as a housekeeping gene. (D) Expression of FoxA2 and the early hepatic markers HNF4α, AFP and TTR in cells at stage II and stage III of differentiation were analyzed by immunofluorescence. Scale bar represents 50 μm. (E) Media (1 μl) from stage III (d25) cells, conditioned for 48 hours, and from a media alone (MA) control were analysed by immunoblotting with an antibody to AFP. Purified AFP and media conditioned from HUH7 cells were run as controls. (F) ELISA assay for human Albumin from stage III (d25) media. (G) Differentiation of BIO-derived DE cells to hepatocyte-like cells. SHEF3 ESCs were treated with 2 μM BIO for 5 days to induce differentiation to the DE. ESCs were then cultured under hepatic induction and maturation conditions as outlined in the Experimental Procedures and FIG. 5A. Expression of FOXA2 and the early hepatic markers HNF4α, AFP and TTR in ESCs at stage II and stage III of differentiation were analyzed by immunofluorescence. Scale bar represents 50 μm. […]

GSK-3 = assay: Phospho-β-catenin immunoblot and TOPFlash luciferase reporter assay in human ESCs; type: cell-based; details: 30 min (immunoblot) or 24 hr (TOPFlash)
Experimental: (A) ESCs [SHEF3] were cultured on MEFs or on Matrigel® in mTeSR1® media and treated with BIO or 1M for 30 min. Protein extracts were prepared and immunoblotting was performed using antibodies detecting the phosphorylated form of […]. The same immunoblot in each case was reprobed for total β-catenin to assess loading. (B) TOPFlash luciferase reporter assay of ESCs [SHEF1] treated for 24 hr with BIO or 1M at the indicated concentrations. Luciferase activity is expressed as a fold increase in activation compared with the normalised TOPFlash luciferase activity in untreated (Con) cells. Data represent the mean+/−SEM of 3 independent experiments.
Cell lysates (20 μg) were prepared, separated by SDS-PAGE and transferred to nitrocellulose as described previously (Welham et al., 1994). […] Images were captured and analysed using the ImageQuant RT ECL system (GE Healthcare). […]
The TOPFlash luciferase reporter plasmid (containing four consensus TCF binding sites upstream of the c-fos minimal promoter, driving expression of a firefly luciferase reporter) and its negative control plasmid FOPFlash (containing four mutant TCF binding sites) were provided by Dr C. […] Cell extracts were prepared and firefly and Renilla luciferase activities were determined using the dual-luciferase reporter assay system according to the manufacturer's instructions (Promega). […]

With `O=C1NC(=O)C2=C1c1cn(c3ccccc13)CCOCCOCCOCCOCCn1cc2c2ccccc21` [1M] the “Potential of compound-derived DE to form hepatocyte-like cells” value [1] was “has the potential to differentiate into cells with hepatocyte characteristics” and the “GSK-3-mediated signaling (β-catenin phosphorylation, TOPFlash activity)” value (GSK-3) was “inhibits GSK-3-mediated signaling”.
